Measured values from the NIST ThermoML archive (doi:10.1021/je400874d).
Numbers after ± are expanded uncertainties.

Assays:
[1] = DTA; for Normal melting temperature: Crystal 1
[2] = Molar enthalpy of transition or fusion; conditions: DSC

Row | SMILES | Normal melting temperature [1] [°C] | Triple point temperature ([1]; Crystal 2) [K] | Triple point temperature ([1]; Crystal 3) [K] | Triple point temperature ([1]; Crystal 4) [K] | Triple point temperature ([1]; Crystal 5) [K] | Molar enthalpy of transition or fusion ([2]; Crystal 1) [kcal/mol] | Molar enthalpy of transition or fusion ([2]; Crystal 2) [kcal/mol] | Molar enthalpy of transition or fusion ([2]; Crystal 3) [kcal/mol] | Molar enthalpy of transition or fusion ([2]; Crystal 4) [kcal/mol] | Molar enthalpy of transition or fusion ([2]; Crystal 5) [kcal/mol]
1 | CCCC(=O)[O-].[K+] [potassium butanoate] | 394 ± 0.5 | 623.1 ± 0.5 | 550 ± 1 | 454.7 ± 0.5 | – | 1.18 ± 0.0598 | 2.56 ± 0.0908 | 0.814 ± 0.0598 | 0.166 ± 0.0311 | –
2 | CC(=O)[O-].[K+] [potassium ethanoate] | 305.5 ± 0.5 | 425 ± 1 | 331.8 ± 0.5 | – | – | 3.92 ± 0.117 | 0.0704 ± 0.0234 | 0.0164 ± 0.0234 | – | –
3 | CCCCCC(=O)[O-].[K+] [potassium hexanoate] | 450.5 ± 0.8 | 582.4 ± 0.5 | – | – | – | 0.922 ± 0.0359 | 3.98 ± 0.11 | – | – | –
4 | O=C[O-].[K+] [potassium formate] | 169.1 ± 0.5 | 415.8 ± 0.5 | – | – | – | 2.79 ± 0.1 | 0.137 ± 0.0311 | – | – | –
5 | CCCCC(=O)[O-].[K+] [potassium pentanoate] | 443.6 ± 0.5 | 585.4 ± 0.5 | 397.6 ± 0.5 | – | – | 1.14 ± 0.0669 | 4.16 ± 0.134 | 0.0938 ± 0.0311 | – | –
6 | CCCCCCCC(=O)[O-].[K+] [potassium octanoate] | 435.5 ± 0.5 | 562.8 ± 0.5 | 327.8 ± 0.5 | – | – | 0.523 ± 0.043 | 4.01 ± 0.131 | 2.4 ± 0.086 | – | –
7 | CCC(=O)[O-].[K+] [potassium propanoate] | 363.8 ± 0.5 | 352.1 ± 0.5 | – | – | – | 4.88 ± 0.134 | 0.429 ± 0.0263 | – | – | –
8 | CCCCCCC(=O)[O-].[K+] [potassium heptanoate] | 449 ± 1 | 571 ± 0.5 | 333.7 ± 0.5 | – | – | 0.804 ± 0.0813 | 4.22 ± 0.12 | 3.14 ± 0.12 | – | –

Continued, values first:

Row | Normal melting temperature [1] [°C] | Triple point temperature ([1]; Crystal 2) [K] | Triple point temperature ([1]; Crystal 3) [K] | Triple point temperature ([1]; Crystal 4) [K] | Triple point temperature ([1]; Crystal 5) [K] | Molar enthalpy of transition or fusion ([2]; Crystal 1) [kcal/mol] | Molar enthalpy of transition or fusion ([2]; Crystal 2) [kcal/mol] | Molar enthalpy of transition or fusion ([2]; Crystal 3) [kcal/mol] | Molar enthalpy of transition or fusion ([2]; Crystal 4) [kcal/mol] | Molar enthalpy of transition or fusion ([2]; Crystal 5) [kcal/mol] | SMILES
9 | 399 ± 0.5 | 543.4 ± 0.5 | 489 ± 1 | 405.5 ± 0.5 | 328.1 ± 0.5 | 0.342 ± 0.0574 | 2.79 ± 0.115 | 1.31 ± 0.0574 | 2.28 ± 0.115 | 2.96 ± 0.115 | CCCCCCCCCCCC(=O)[O-].[K+] [dodecanoic acid, potassium salt]
10 | 431.4 ± 0.5 | 544.9 ± 0.5 | 367.6 ± 0.5 | – | – | 0.469 ± 0.0478 | 3.47 ± 0.141 | 3.75 ± 0.141 | – | – | CCCCCCCCC(=O)[O-].[K+] [potassium nonanoate]
11 | 418.4 ± 0.5 | 546.5 ± 0.5 | 528 ± 1 | 383 ± 1 | 346.3 ± 0.5 | 0.402 ± 0.0502 | – | – | 0.855 ± 0.0502 | 1.36 ± 0.1 | CCCCCCCCCC(=O)[O-].[K+] [potassium decanoate]
12 | 407.6 ± 0.5 | 542.5 ± 0.5 | 410 ± 1 | 354.6 ± 0.5 | – | 0.375 ± 0.0526 | 2.9 ± 0.108 | 2.15 ± 0.108 | 2.95 ± 0.108 | – | CCCCCCCCCCC(=O)[O-].[K+] [potassium undecanoate]
